Assay results reported in patent publication US20220288110A1, “DRUG TREATMENT AND BIOMARKER PANEL TARGETED TO DISEASES DUE TO MULT[…] OF […]” (priority 2021, published 2022).
Values joined by “and” are separate entries in the source; they are usually repeats but may differ in a detail not shown here. Equal entries are not always repeated.

Test system: Severe Acute Respiratory Syndrome-Associated Coronavirus (SARS-CoV-1) Urbani strain
Design: species or system BALB/C mice
Conditions: in vivo

## polyinosinic: polycytidylic acid
  relative efficacy in reducing viral load in mouse lung (in words): lower viral titers at the 3-day mark
mouse
  order of efficacy by percent reduction in viral load: H>G>F>A>D>B=C>I>J>E
  virtual linear slope of viral reduction beyond 5 days post exposure: day mark at which it converged: 7 days
mouse, ip, 10 mg/kg/day
  Lung virus titer: 7.2 CC ID/50 (Log 10) and 7.0 CC ID/50 (Log 10) and 6.5 CC ID/50 (Log 10) and 6.0 CC ID/50 (Log 10) and 6.2 CC ID/50 (Log 10)
  percent reduction in viral load: 11.8%
